Laboratory results as given in patent publication US20220040122A1, “COMPOSITION FOR ALLERGY PREVENTION, ATOPIC DERMATITIS ALLEVIATION OR SKIN REGENERATION, CONTAINING, AS ACTIVE INGREDIENT, UNDECANE OR UNDECANAL” (BOTANICSENS, priority 2019, published 2022).
Entries after “also recorded” stand apart in the source; their conditions may differ.

Assays:
[1] = tested on: Keratinocytes (human keratinocyte cell line, HaCaT); assay: Inflammatory cytokine expression (real-time PCR) in TNF-α/IFN-γ-stimulated keratinocytes; format: cell-based; conditions: 24 h, vs immune-response-induced control
Experimental: (§1) Keratinocytes (human keratinocyte cell line, HaCaT) were purchased from ATCC (Manassas, Va., USA) and used. For cell culture, the culture medium of DMEM containing 10% fetal bovine serum (FBS) and antibiotics was used. The culture vessel used a 75T-flask and a 6-well plate, and cultured in a 37° C. incubator supplied with 5% CO2. The culture medium was changed every 3 to 4 days, and subculture was performed when the cells were excessively proliferated. The dispensed HaCaT cells (5×10^5/well) were cultured for 24 hours and then washed with PBS. In order to induce an immune response to keratinocytes, TNF-α (tumor necrosis factor-α) (10 ng/ml) and IFN-γ (interferon gamma) (10 ng/ml) were treated together in DMEM medium without FBS and incubated for 24 hours. At this time, in order to evaluate the efficacy of alleviating the immune response of undecane, 100 μM of undecane was simultaneously treated, and in the case of normal cells, DMSO instead of undecane, and in the case of positive control cells, 10 μM of tacrolimus instead of undecane were treated simultaneously with the immune response inducer and incubated for 24 hours.
(§2) After removing the supernatant of the mast cells that induced the immune response, 1 ml of trizol was added, left for 2 minutes, and chloroform was added, vortexed for 10 seconds, centrifuged at 5,000 rpm for 10 minutes, and the upper layer was taken, and mixed with the same amount of isopropanol and shaken. The supernatant was removed by centrifugation at 13,000 rpm for 25 minutes, and the pellet was dissolved in 20 μl of diethyl pyrocarbonate (DEPC)-DW and stored at −20° C. and then used in the experiment. RT-PCR was performed using a one-step RT-PCR PreMixkit (iNtRON Biotechnology, Korea) at 45° C. for 30 minutes and at 94° C. for 5 minutes, followed by denaturation at 94° C. for 30 seconds, and then after annealing at 55° C. for 30 seconds, the cycle of extension at 72° C. for 1 minute was repeated 32 times, and the last extension was performed at 72° C. for 5 minutes, and PiQ SYBR green supermix (Bio-Rad) and CFX Connect™ Real-Time PCR Detection System (Bio-Rad) was used to perform quantitative PCR, and the primer sequences used are as shown in Table 1.
as §1, with “undecanal,” for “undecane,”, “undecanal” for “undecane”
RNA isolation and real-time PCR (quantitative reverse-transcription polymerase chain reaction) using a Trizol method was performed by the same method as 3) RNA isolation using the Trizol method and real-time PCR of 1-1. of Example 1 described above.

rats [2] = conditions: chronic oral administration; cited from earlier work
[3] = tested on: Mast cells (rat basophilic leukemia cell line, RBL-2H3); assay: Inflammatory cytokine expression (real-time PCR) in anti-DNP-IgE/DNP-HSA-stimulated mast cells; format: cell-based; conditions: 1 h before DNP-HSA induction, vs immune-response-induced control
Experimental: Then, it was sensitized with anti-DNP (dinitrophenyl)-IgE (30 ng/ml) and cultured for 24 hours at 37° C., 5% CO2 in an incubator. After washing twice with PBS (phosphate buffered saline), DNP-HSA (dinitrophenylated human serum albumin; 10 μg/ml) was treated for 4 hours to induce an immune response. In addition, in order to evaluate atopy alleviating effect by undecane, mast cells treated with anti-DNP (dinitrophenyl)-IgE and cultured for 24 hours were treated with 100 μM of undecane, cultured for 1 hour, and then an immune response was induced with DNP-HSA. Normal cells were treated with DMSO instead of undecane under the same conditions as undecane-treated cells, and positive control cells were treated with 10 μM of tacrolimus instead of undecane and cultured for 1 hour, and then, an immune response was induced with DNP-HSA.
as §2, with “1. […]” for “1.”
Then, it was sensitized with anti-DNP (dinitrophenyl)-IgE (30 ng/ml) and cultured for 24 hours at 37° C., 5% CO2 in an incubator. After washing twice with PBS (phosphate buffered saline), DNP-HSA (dinitrophenylated human serum albumin; 10 μg/ml) was treated for 4 hours to induce an immune response. In addition, in order to evaluate an effect of alleviating atopy by undecanal, mast cells treated with anti-DNP (dinitrophenyl)-IgE and cultured for 24 hours were treated with 100 μM of undecanal, cultured for 1 hour, and then an immune response was induced with DNP-HSA. Normal cells were treated with DMSO instead of undecanal under the same conditions as undecanal-treated cells, and positive control cells were treated with 10 μM of tacrolimus instead of undecanal and cultured for 1 hour, and then, an immune response was induced with DNP-HSA. […]

rats [4] = conditions: rat, in vivo, po; cited from earlier work
rats [5] = conditions: cited from earlier work
[6] = 100 μM test compound together with TNF-α and IFN-γ
[7] = positive control 10 μM together with TNF-α and IFN-γ

SMILES: CCCCCCCCCCC=O [undecanal]
- expression of IL-1β [1, 6]: significantly reduced; also recorded: remarkably reduced
- expression of IL-6 [1, 6]: significantly reduced; also recorded: remarkably reduced
- expression of IL-8 [1, 6]: significantly reduced; also recorded: remarkably reduced
- no-observed-adverse-effect level (NOAEL) (rats [2]): about 1000 mg/kg bw
- expression of IL-4 ([3]; 100 μM test compound): significantly reduced; also recorded: remarkably reduced
- expression of IL-13 ([3]; 100 μM test compound): significantly reduced; also recorded: remarkably reduced
- expression of TNF-α ([3]; 100 μM test compound): significantly reduced; also recorded: remarkably reduced
- LD50 (lethal dose, 50%) (rats [4]): > 5,000 mg/kg bw/day

SMILES: C=CC[C@@H]1/C=C(\C)C[C@H](C)C[C@H](OC)[C@H]2O[C@@](O)(C(=O)C(=O)N3CCCC[C@H]3C(=O)O[C@H](/C(C)=C/[C@@H]3CC[C@@H](O)[C@H](OC)C3)[C@H](C)[C@@H](O)CC1=O)[C@H](C)C[C@@H]2OC [tacrolimus, reference compound]
- expression of IL-1β [1, 7]: significantly reduced
- expression of IL-6 [1, 7]: significantly reduced
- expression of IL-8 [1, 7]: significantly reduced
- expression of IL-4 ([3]; positive control 10 μM): significantly reduced
- expression of IL-13 ([3]; positive control 10 μM): significantly reduced
- expression of TNF-α ([3]; positive control 10 μM): significantly reduced

SMILES: CCCCCCCCCCC [undecane]
- expression of IL-1β [1, 6]: significantly reduced; also recorded: remarkably reduced
- expression of IL-6 [1, 6]: significantly reduced; also recorded: remarkably reduced
- expression of IL-8 [1, 6]: significantly reduced; also recorded: remarkably reduced
- LD50 (lethal dose, 50%) for inhalation toxicity (rats [5]): about 442 ppm/8H
- expression of IL-4 ([3]; 100 μM test compound): significantly reduced; also recorded: remarkably reduced
- expression of IL-13 ([3]; 100 μM test compound): significantly reduced; also recorded: remarkably reduced
- expression of TNF-α ([3]; 100 μM test compound): significantly reduced; also recorded: remarkably reduced
